{"source": "patent US20210139846A1", "about": "“ENGINEERED CELLS, AND METHODS OF USING THE SAME” (Board of Supervisors of Louisiana State University and …, priority 2017, published 2021)", "key": {"[1]": {"target": "T1, AdipoR1 (Homo sapiens, UniProt Q96A54)", "T1 construct": "host or cells: human adipose tissue-derived stem cells (hASC); human primary retinal pigment epithelial (ABC) cells", "T1 sequence (Q96A54 1-375)": "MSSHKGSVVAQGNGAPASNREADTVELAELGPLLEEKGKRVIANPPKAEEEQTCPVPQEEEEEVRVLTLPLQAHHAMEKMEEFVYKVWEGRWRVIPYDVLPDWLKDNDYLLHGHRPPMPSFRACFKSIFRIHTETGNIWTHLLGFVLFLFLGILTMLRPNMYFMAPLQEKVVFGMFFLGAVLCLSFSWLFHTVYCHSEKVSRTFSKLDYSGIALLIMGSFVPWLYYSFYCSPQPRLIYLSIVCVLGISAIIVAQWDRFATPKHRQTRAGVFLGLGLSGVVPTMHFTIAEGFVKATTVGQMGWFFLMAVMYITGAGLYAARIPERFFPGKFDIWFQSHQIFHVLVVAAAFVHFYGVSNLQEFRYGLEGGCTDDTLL", "experiment": "DHA-d5 / AA-d8 uptake by hASCs overexpressing AdipoR1, LC-MS/MS, with adiporon (FIG. 11)", "type": "cell-based", "procedure": "Stable clones of hASCs overexpressing AdipoR1 or mCherry following lentivirus transduction, were incubated overnight in the presence or not of DHA-d5 or AA-d8 (1 μM) and vehicle DMSO with various concentrations of AdipoR1 […] adiporon (1-50 μM). […] Compared to DHA-d5 uptake, levels of AA-d8 were extremely low under these conditions."}, "[2]": {"test_system": "neurons and neural stem/progenitor cells", "settings": "cited from earlier work"}, "[3]": {"test_system": "SD male rats, 2 h of MCAo", "experiment": "2 h MCAo by intraluminal suture, DHA 5 mg/kg IV (FIG. 16-23)", "type": "in vivo", "procedure": "(11-12 weeks old); Model: 2 h of MCAo by intraluminal suture; DHA (5 mg/kg) or Saline treatments (IV)—at 3 h from onset of MCAo; BrdU labeling at days 4, 5, 6; Immunohistochemistry on week 2"}, "[4]": {"test_system": "SD male rats, 2 h of MCAo", "settings": "DHA systemically injected; reference 8; cited from earlier work"}, "[5]": {"test_system": "ischemic stroke", "experiment": "DHA administered icv after ischemic stroke (FIG. 7)", "type": "in vivo, rats"}, "[6]": {"test_system": "human adipose tissue derived stem cells", "experiment": "Chemical transdifferentiation of stem cells into neurons with DHA (FIG. 12)", "type": "cell-based", "settings": "24 hours, induction media containing DHA (504) vs induction medium alone", "procedure": "Images were taken 24 hours following incubation in the presence of induction media containing or not containing DHA (504)."}, "[7]": {"settings": "DHA 5 mg/kg IV, immunohistochemistry on week 2"}}, "data": [{"smiles": "CCCCC/C=C\\C/C=C\\C/C=C\\C/C=C\\CCCC(=O)O", "note": "[AA-d8]", "values": [{"measurement": "levels of AA-d8 compared to DHA-d5 uptake", "setting": "[1]; 1 μM AA-d8 overnight in hASCs", "value": "extremely low"}]}, {"smiles": "CC/C=C\\C/C=C\\C/C=C\\C/C=C\\C/C=C\\C/C=C\\CCC(=O)O", "note": "[DHA, 4,7,10,13,16,19-docosahexanoic acid]", "values": [{"measurement": "neurite growth, synaptogenesis, synaptic protein expression and synaptic functions in hippocamal neuron", "setting": "[2]; Cao, D et al., 2009", "value": "promotes"}, {"measurement": "neurite outgrowth", "setting": "[2]; DHA supplementation, L. Dagai et al., 2009", "value": "accelerated"}, {"measurement": "neuronal differentiation of neural stem cells", "setting": "[2]; M. Katakura et al., 2009", "value": "enhances"}, {"measurement": "number of neurons derived from neural stem/progenitor cells", "setting": "[2]; Nobuyuki Sakayoti et al., 2011", "value": "increases"}, {"measurement": "total neurologic deficits", "setting": "[3]; DHA 5 mg/kg IV at 3 h from onset of MCAo vs saline", "value": "improved"}, {"measurement": "cortical infarct volume", "setting": "[3]; DHA 5 mg/kg IV, histopathology", "value": "reduced"}, {"measurement": "total infarct volume", "setting": "[3]; DHA 5 mg/kg IV, histopathology", "value": "reduced"}, {"measurement": "BrdU+/DCX+ cells in cortex, SVZ and DG", "setting": "[3]; [7]", "value": "increased"}, {"measurement": "BrdU+/NeuN+ cells in cortex, SVZ and DG", "setting": "[3]; [7]", "value": "increased"}, {"measurement": "BrdU+/ki-67+ cells in cortex, SVZ and DG", "setting": "[3]; [7]", "value": "increased"}, {"measurement": "neurogenesis in the DG, SVZ and peri-infarct area", "setting": "[3]; proliferation, differentiation and migration of neural stem cells", "value": "increased"}, {"measurement": "infarct volume", "setting": "[3]; rat, in vivo", "value": "reduced"}, {"measurement": "neurobehavioral recovery", "setting": "[3]; rat, in vivo", "value": "promoted"}, {"measurement": "neuroprotection against ischemic stroke", "setting": "[4]", "value": "neuroprotective"}, {"measurement": "ischemic brain damage", "setting": "[5]; DHA at the site where GESC would be administered (icv), 7 days", "value": "reduced"}, {"measurement": "behavioral functions", "setting": "[5]; DHA icv, 7 days", "value": "improves"}, {"measurement": "protection by DHA administered icv", "setting": "[5]; icv", "value": "protective"}, {"measurement": "percentage of morphologically mature neurons", "setting": "[6]", "value": "strongly increased"}]}, {"smiles": "O=C(COc1ccc(C(=O)c2ccccc2)cc1)NC1CCN(Cc2ccccc2)CC1", "note": "[adiporon]", "values": [{"measurement": "effect on DHA-d5 uptake of AdipoR1 transduced cells", "setting": "[1]; adiporon 1-50 μM, 1 μM DHA-d5 overnight", "value": "further increased"}]}]}
